Source: US7511145B2 (Genelabs Technologies, Inc., priority 2003, dated 2009)

Columns and labels:
HCV-NS5b = molecular target: T1, HCV-NS5b (Hepatitis C virus genotype 1b, UniProt Q9WMX2); assay: HCV-NS5b enzyme assay (incorporation of radiolabeled UTP); format: biochemical; conditions: for inhibition at 33 µM: enzyme inhibition at compound concentration of 33 uM; for inhibition at 100 µM: read-out: % inh@100, enzyme inhibition at compound concentration of 100 uM
T1 construct: (His)6 (C); made in house; host or cells: XL-1 cells (E. coli), IPTG-inducible plasmid, nickel-NTA purification
Method in brief: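 His6-tagged NS5b lacking the C-terminal 21 residues, expressed in XL-1 and Ni-NTA purified. Reaction at pH 7.5 with 5 mM MgCl2, 10 μM each NTP including [3H]-UTP and biotinylated HCV heteropolymeric template, 2 h at 37° C; SPA read-out; % inhibition at 100 and 33 uM versus no-compound control, background subtracted.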

[1] = cited from earlier work

Compound	inhibition at 33 µM (HCV-NS5b)	inhibition at 100 µM (HCV-NS5b)	teratogenicity / embryotoxicity ([1]; human, in vivo)	patients with significant hemolysis ([1]; patients treated at currently recommended doses)
COc1ccc(-c2ccccc2OC)c(-c2ccc3cc(-c4nc5cc(C(=O)O)ccc5n4C4CCCCC4)ccc3n2)c1 [Compound 552, 1-Cyclohexyl-2-[2-(4,2′-dimethoxy-biphen-2-yl)-quinolin-6-yl]-1H-benzoimidazole-5-carboxylic acid]	101%	101%		
COc1ccc(-c2ccc(Cl)cc2)c(-c2ccc3cc(-c4nc5cc(C(=O)O)ccc5n4C4CC(C)CC(C)(C)C4)ccc3n2)c1 (centres unmarked) [Compound 555, 2-[2-(4′-chloro-4-methoxy-biphen-2-yl)-quinolin-6-yl]-1-(3,3,5-trimethyl-cyclohexyl)-1H-benzoimidazole-5-carboxylic acid]	101%	101%		
COc1ccc(-c2ccc(Cl)cc2)c(-c2ccc3cc(-c4nc5cc(C(=O)O)ccc5n4C4CCCCC4C)ccc3n2)c1 (centres unmarked) [Compound 556, 2-[2-(4′-Chloro-4-methoxy-biphen-2-yl)-quinolin-6-yl]-1-(2-methyl-cyclohexyl)-1H-benzoimidazole-5-carboxylic acid]	103%	102%		
CCc1ccc(-c2ccc(OC)cc2-c2ccc3cc(-c4nc5cc(C(=O)O)ccc5n4C4CCCCC4)ccc3n2)cc1 [Compound 557, 1-Cyclohexyl-2-[2-(4′-ethyl-4-methoxy-biphen-2-yl)-quinolin-6-yl]-1H-benzoimidazole-5-carboxylic acid]	103%	101%		
COc1ccc(-c2ccc(Cl)cc2)c(-c2ccc3cc(-c4nc5cc(C(=O)O)ccc5n4C4CCNCC4)ccc3n2)c1 [Compound 558, 2-[2-(4′-Chloro-4-methoxy-biphen-2-yl)-quinolin-6-yl]-1-piperidin-4-yl-1H-benzoimidazole-5-carboxylic acid]	32.5%	77.3%		
COc1ccc(-c2ccc(Cl)cc2)c(-c2ccc3cc(-c4nc5cc(C(=O)O)ccc5n4Cc4ccccc4)ccc3n2)c1 [Compound 559, 1-Benzyl-2-[2-(4′-chloro-4-methoxy-biphen-2-yl)-quinolin-6-yl]-1H-benzoimidazole-5-carboxylic acid]	101%	101%		
COc1ccc(-c2ccc(F)c(F)c2)c(-c2ccc3cc(-c4nc5cc(C(=O)O)ccc5n4C4CCCCC4)ccc3n2)c1 [Compound 560, 1-Cyclohexyl-2-[2-(3′,4′-difluoro-4-methoxy-biphen-2-yl)-quinolin-6-yl]-1H-benzoimidazole-5-carboxylic acid]	101%	101%		
COc1ccc(-c2cc(Cl)cc(Cl)c2)c(-c2ccc3cc(-c4nc5cc(C(=O)O)ccc5n4C4CCCCC4)ccc3n2)c1 [Compound 562, 1-Cyclohexyl-2-[2-(3′,5′-dichloro-4-methoxy-biphen-2-yl)-quinolin-6-yl]-1H-benzoimidazole-5-carboxylic acid]	102%	101%		
O=C(O)c1ccc2c(c1)nc(-c1ccc3nc(-c4cc(F)ccc4-c4ccc(Cl)cc4)ccc3c1)n2C1CCCCC1 [Compound 563, 2-[2-(4′-Chloro-4-fluoro-biphen-2-yl)-quinolin-6-yl]-1-cyclohexyl-1H-benzoimidazole-5-carboxylic acid]	101%	101%		
CCC(CC)n1c(-c2ccc3nc(-c4cc(OC)ccc4-c4ccc(Cl)cc4)ccc3c2)nc2cc(C(=O)O)ccc21 [Compound 564, 2-[2-(4′-Chloro-4-methoxy-biphen-2-yl)-quinolin-6-yl]-1-(1-ethyl-propyl)-1H-benzoimidazole-5-carboxylic acid]	102%	101%		
O=C(O)c1ccc2c(c1)nc(-c1ccc3nc(-c4cc5c(cc4-c4ccc(Cl)cc4)OCCCO5)ccc3c1)n2C1CCCCC1 [Compound 565, 2-{2-[8-(4-chloro-phenyl)-3,4-dihydro-2H-benzo[b][1,4]dioxepin-7-yl]-quinolin-6-yl}-1-cyclohexyl-1H-benzoimidazole-5-carboxylic acid]	102%	100%		
COc1ccc(-c2ccc(Cl)cc2)c(-c2ccc3cc(-c4nc5cc(C(=O)O)ccc5n4CC4CCCO4)ccc3n2)c1 (centres unmarked) [Compound 566, 2-[2-(4′-chloro-4-methoxy-biphen-2-yl)-quinolin-6-yl]-1-(tetrahydrofuran-2-yl-methyl)-1H-benzoimidazole-5-carboxylic acid]	99.2%	100%		
O=C(O)c1ccc2c(c1)nc(-c1ccc3nc(-c4cc(Cl)ccc4-c4ccc(Cl)cc4)ccc3c1)n2C1CCCCC1 [Compound 567, 1-cyclohexyl-2-[2-(4,4′-dichloro-biphen-2-yl)-quinolin-6-yl]-1H-benzoimidazole-5-carboxylic acid]	101%	97.7%		
COc1ccc(-c2ccc(Cl)cc2)c(-c2ccc3cc(-c4nc5cc(C(=O)O)ccc5n4C4CC5CCC4C5)ccc3n2)c1 (centres unmarked) [Compound 568, 1-bicyclo[2.2.1]hept-2-yl-2-[2-(4′-chloro-4-methoxy-biphen-2-yl)-quinolin-6-yl]1H-benzoimidazole-5-carboxylic acid]	101%	100%		
Nc1ccc(-c2ccc(Cl)cc2)c(-c2ccc3cc(-c4nc5cc(C(=O)O)ccc5n4C4CCCCC4)ccc3n2)c1 [Compound 569, 2-[2-(4-amino-4′-chloro-biphen-2-yl)-quinolin-6-yl]-1-cyclohexyl-1H-benzoimidazole-5-carboxylic acid]	101%	101%		
NC(=O)c1ncn([C@@H]2O[C@H](CO)[C@@H](O)[C@H]2O)n1 [Ribavirin, ribavirin]			teratogenic and embryotoxic	10-20%
